{
  "source": "patent US20240245628A1",
  "about": "“COMPOSITIONS AND METHODS FOR HEALTH COMPRISING CO-ENZYME Q10” (Bausch + Lomb Ireland Limited, priority 2023, published 2024)",
  "origin": "cited, not measured here",
  "conditions": "at levels as high as 800.0 mg",
  "data": [
    {"substance": "vitamin E", "values": [
      {"measurement": "adverse effects of vitamin E", "value": "No adverse effects"}
    ]}
  ]
}
